From ChEMBL document CHEMBL3885881, “DrugMatrix”

Organism: Rattus norvegicus
Experiment: DrugMatrix - Regimen: Daily Repeat
Type: toxicity, organism-based, Sprague-Dawley
Parameters: regimen Daily Repeat, gender Male, age 6-8 weeks
Conditions: in vivo, po, 1200 mg/kg, route oral GAVAGE, dose level High, vehicle .5 % CMC; for ABSOLUTE BASOPHIL / ABSOLUTE EOSINOPHIL / ABSOLUTE LYMPHOCYTE / ABSOLUTE MONOCYTE / ABSOLUTE SEGMENTED NEUTROPHIL / BASOPHIL / EOSINOPHIL / ERYTHROCYTE COUNT / HEMATOCRIT / HEMOGLOBIN / LEUKOCYTE COUNT / LYMPHOCYTE / MEAN CORPUSCULAR HEMOGLOBIN / MEAN CORPUSCULAR HEMOGLOBIN CONCENTRATION / MEAN CORPUSCULAR VOLUME / MONOCYTE / NEUTROPHIL / NUCLEATED RED BLOOD CELLS / PLATELET COUNT: tissue Blood; for ALANINE AMINOTRANSFERASE / ALBUMIN / ALKALINE PHOSPHATASE / ASPARTATE AMINOTRANSFERASE / BLOOD UREA NITROGEN / CARBON DIOXIDE / CHLORIDE / CHOLESTEROL / CREATINE PHOSPHOKINASE / CREATININE / GLUCOSE / LACTATE DEHYDROGENASE / LIPASE / PHOSPHORUS / POTASSIUM / SODIUM / TOTAL BILIRUBIN / TOTAL PROTEIN / URIC ACID: tissue Plasma

COc1cc(C(=O)NC2CCCNC2)cc(OC)c1OC (stereo unspecified) [TROXIPIDE]
ABSOLUTE BASOPHIL (72 h, time 3 day): 0 CELLS/uL
ABSOLUTE EOSINOPHIL (72 h, time 3 day): 0 CELLS/uL
ABSOLUTE LYMPHOCYTE (72 h, time 3 day): 8315.67 CELLS/uL
ABSOLUTE MONOCYTE (72 h, time 3 day): 238.67 CELLS/uL
ABSOLUTE SEGMENTED NEUTROPHIL (72 h, time 3 day): 579 CELLS/uL
BASOPHIL (72 h, time 3 day): 0%
EOSINOPHIL (72 h, time 3 day): 0%
ERYTHROCYTE COUNT (72 h, time 3 day): 5.66 x10E6/uL
HEMATOCRIT (72 h, time 3 day): 34.93%
HEMOGLOBIN (72 h, time 3 day): 13.13 G/DL
LEUKOCYTE COUNT (72 h, time 3 day): 9.13 x10E3/uL
LYMPHOCYTE (72 h, time 3 day): 91%
MEAN CORPUSCULAR HEMOGLOBIN (72 h, time 3 day): 23.23 pg
MEAN CORPUSCULAR HEMOGLOBIN CONCENTRATION (72 h, time 3 day): 37.6 G/DL
MEAN CORPUSCULAR VOLUME (72 h, time 3 day): 61.73 fL
MONOCYTE (72 h, time 3 day): 2.33%
NEUTROPHIL (72 h, time 3 day): 6.67%
NUCLEATED RED BLOOD CELLS (72 h, time 3 day): 0 /100WBC
PLATELET COUNT (72 h, time 3 day): 1475 x10E3/uL
ALANINE AMINOTRANSFERASE (72 h, time 3 day): 56 u/L
ALBUMIN (72 h, time 3 day): 4.5 G/DL
ALKALINE PHOSPHATASE (72 h, time 3 day): 344 u/L
ASPARTATE AMINOTRANSFERASE (72 h, time 3 day): 88 u/L
BLOOD UREA NITROGEN (72 h, time 3 day): 12.67 mg/dL
CARBON DIOXIDE (72 h, time 3 day): 27.67 mmol/L
CHLORIDE (72 h, time 3 day): 106.33 MEQ/L
CHOLESTEROL (72 h, time 3 day): 80.33 mg/dL
CREATINE PHOSPHOKINASE (72 h, time 3 day): 209.33 u/L
CREATININE (72 h, time 3 day): 0.21 mg/dL
GLUCOSE (72 h, time 3 day): 138.33 mg/dL
LACTATE DEHYDROGENASE (72 h, time 3 day): 178 u/L
LIPASE (72 h, time 3 day): 8.67 u/L
PHOSPHORUS (72 h, time 3 day): 11.63 mg/dL
POTASSIUM (72 h, time 3 day): 6.42 MEQ/L
SODIUM (72 h, time 3 day): 150.7 MEQ/L
TOTAL BILIRUBIN (72 h, time 3 day): 0.2 mg/dL
TOTAL PROTEIN (72 h, time 3 day): 6.4 G/DL
URIC ACID (72 h, time 3 day): 1.2 mg/dL
ABSOLUTE BASOPHIL (120 h, time 5 day): 0 CELLS/uL
ABSOLUTE EOSINOPHIL (120 h, time 5 day): 55.33 CELLS/uL
ABSOLUTE LYMPHOCYTE (120 h, time 5 day): 13790.67 CELLS/uL
ABSOLUTE MONOCYTE (120 h, time 5 day): 0 CELLS/uL
ABSOLUTE SEGMENTED NEUTROPHIL (120 h, time 5 day): 1154 CELLS/uL
BASOPHIL (120 h, time 5 day): 0%
EOSINOPHIL (120 h, time 5 day): 0.33%
ERYTHROCYTE COUNT (120 h, time 5 day): 5.99 x10E6/uL
HEMATOCRIT (120 h, time 5 day): 37.5%
HEMOGLOBIN (120 h, time 5 day): 13.97 G/DL
LEUKOCYTE COUNT (120 h, time 5 day): 15 x10E3/uL
LYMPHOCYTE (120 h, time 5 day): 92%
MEAN CORPUSCULAR HEMOGLOBIN (120 h, time 5 day): 23.33 pg
MEAN CORPUSCULAR HEMOGLOBIN CONCENTRATION (120 h, time 5 day): 37.23 G/DL
MEAN CORPUSCULAR VOLUME (120 h, time 5 day): 62.67 fL
MONOCYTE (120 h, time 5 day): 0%
NEUTROPHIL (120 h, time 5 day): 7.67%
NUCLEATED RED BLOOD CELLS (120 h, time 5 day): 0 /100WBC
PLATELET COUNT (120 h, time 5 day): 1467.33 x10E3/uL
ALANINE AMINOTRANSFERASE (120 h, time 5 day): 59.33 u/L
ALBUMIN (120 h, time 5 day): 4.1 G/DL
ALKALINE PHOSPHATASE (120 h, time 5 day): 355.33 u/L
ASPARTATE AMINOTRANSFERASE (120 h, time 5 day): 81.33 u/L
BLOOD UREA NITROGEN (120 h, time 5 day): 15.33 mg/dL
CARBON DIOXIDE (120 h, time 5 day): 24.33 mmol/L
CHLORIDE (120 h, time 5 day): 106.33 MEQ/L
CHOLESTEROL (120 h, time 5 day): 65.33 mg/dL
CREATINE PHOSPHOKINASE (120 h, time 5 day): 150 u/L
CREATININE (120 h, time 5 day): 0.2 mg/dL
GLUCOSE (120 h, time 5 day): 176 mg/dL
LACTATE DEHYDROGENASE (120 h, time 5 day): 88.67 u/L
LIPASE (120 h, time 5 day): 8.33 u/L
PHOSPHORUS (120 h, time 5 day): 13.83 mg/dL
POTASSIUM (120 h, time 5 day): 6.2 MEQ/L
SODIUM (120 h, time 5 day): 146.57 MEQ/L
TOTAL BILIRUBIN (120 h, time 5 day): 0.17 mg/dL
TOTAL PROTEIN (120 h, time 5 day): 6.17 G/DL
URIC ACID (120 h, time 5 day): 2.43 mg/dL
